# Results published in ChEMBL document CHEMBL1142990, “Self-organizing maps for identification of new inhibitors of P-glycoprotein” (J Med Chem, 2007).
# Biological target: ATP-dependent translocase ABCB1 (Homo sapiens, UniProt P08183)
# Experiment: Inhibition of P-glycoprotein expressed in MDR CCRF vcr1000 cells by daunorubicin efflux assay
# ATP-dependent translocase ABCB1, sequence (P08183 whole entry): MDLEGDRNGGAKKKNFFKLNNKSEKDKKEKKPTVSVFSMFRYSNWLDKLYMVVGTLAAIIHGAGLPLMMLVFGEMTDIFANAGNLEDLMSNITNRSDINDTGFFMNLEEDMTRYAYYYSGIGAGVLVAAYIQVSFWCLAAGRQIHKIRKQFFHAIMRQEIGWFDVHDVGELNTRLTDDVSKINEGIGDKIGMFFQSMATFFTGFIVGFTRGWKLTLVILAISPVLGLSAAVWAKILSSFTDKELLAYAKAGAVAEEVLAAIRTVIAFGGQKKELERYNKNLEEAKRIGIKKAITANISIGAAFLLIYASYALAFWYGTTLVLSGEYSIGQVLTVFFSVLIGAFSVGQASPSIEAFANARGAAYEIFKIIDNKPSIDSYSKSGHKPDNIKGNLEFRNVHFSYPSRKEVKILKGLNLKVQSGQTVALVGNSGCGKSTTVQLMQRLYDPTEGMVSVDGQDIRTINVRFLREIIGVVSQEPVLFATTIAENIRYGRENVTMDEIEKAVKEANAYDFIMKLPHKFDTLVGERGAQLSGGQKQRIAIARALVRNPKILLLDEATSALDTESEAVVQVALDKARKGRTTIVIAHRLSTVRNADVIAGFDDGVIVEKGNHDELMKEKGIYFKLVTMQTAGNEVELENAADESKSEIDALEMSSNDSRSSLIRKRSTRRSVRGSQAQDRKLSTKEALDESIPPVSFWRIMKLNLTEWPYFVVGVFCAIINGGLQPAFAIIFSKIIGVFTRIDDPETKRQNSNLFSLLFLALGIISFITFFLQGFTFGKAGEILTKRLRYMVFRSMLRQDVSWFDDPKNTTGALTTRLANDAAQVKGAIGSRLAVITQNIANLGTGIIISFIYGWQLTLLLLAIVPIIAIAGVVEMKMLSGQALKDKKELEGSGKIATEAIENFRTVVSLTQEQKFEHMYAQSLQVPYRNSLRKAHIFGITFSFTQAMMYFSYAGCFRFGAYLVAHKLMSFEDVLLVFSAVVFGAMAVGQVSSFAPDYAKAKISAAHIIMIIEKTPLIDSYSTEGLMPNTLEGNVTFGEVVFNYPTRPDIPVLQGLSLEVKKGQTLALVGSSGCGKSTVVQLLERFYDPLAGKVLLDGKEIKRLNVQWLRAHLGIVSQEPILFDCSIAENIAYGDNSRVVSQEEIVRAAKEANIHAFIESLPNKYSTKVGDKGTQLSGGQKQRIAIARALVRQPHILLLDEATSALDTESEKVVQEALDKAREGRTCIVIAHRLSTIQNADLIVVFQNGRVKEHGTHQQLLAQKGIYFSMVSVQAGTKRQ
row,SMILES,EC50
1,CC(=O)c1ccc(OCC(O)CN2CCN(c3ccc(F)cc3)CC2)cc1 (configuration not stated),11.9 µM
2,O=C(CCc1cccc2ccccc12)c1ccccc1OCC(O)CN1CCC(O)(c2ccccc2)CC1 (configuration not stated),0.075 µM
3,COC(=O)c1ccc(NCC(O)COc2ccccc2C(=O)CCc2ccccc2)cc1 (configuration not stated),1.54 µM
4,O=C1c2c(cccc2OCC(O)CN2CCCCC2)CC1Cc1ccccc1 (configuration not stated),0.212 µM
5,CC(=O)c1ccc(OCC(O)CN2CCN(c3ccccc3C)CC2)cc1 (configuration not stated),1.55 µM
6,O=C(CCc1ccccc1)c1ccccc1OCCCCN1CCN(c2ccc(F)cc2)CC1,0.192 µM
7,O=C1c2cccc(OCC(O)CN3CCCCC3)c2CC1Cc1ccccc1 (configuration not stated),0.142 µM
8,O=C(CCc1ccccc1)c1ccccc1OCC(O)CNc1ccc(C(F)(F)F)cc1 (configuration not stated),8.49 µM
9,O=C1CC(CN2CCCCC2)Oc2ccccc21 (configuration not stated),176 µM
10,CC(C)(C)C(NCC(O)COc1ccccc1C(=O)CCc1ccccc1)c1ccccc1 (configuration not stated),0.292 µM
11,CCC(=O)N(Cc1ccccc1)CC(O)COc1ccccc1C(=O)CCc1ccccc1 (configuration not stated),1.65 µM
12,O=C(CCc1ccccc1)c1ccccc1OCC(O)CNc1ccc([N+](=O)[O-])cc1 (configuration not stated),2.57 µM
13,CC1Cc2cccc(OCC(O)CN3CCCCC3)c2C1=O (configuration not stated),9.68 µM
14,CCOC(=O)COc1ccccc1C(=O)CCc1ccccc1,23.2 µM
15,COc1ccc(CCC(=O)c2ccccc2OCC(O)CN2CCN(c3ccccc3C)CC2)cc1 (configuration not stated),0.014 µM
16,CC(C)N(CC(O)COc1ccccc1C(=O)CCc1cccc2ccccc12)C(C)C (configuration not stated),0.465 µM
17,Cc1ccc(N2CCN(CC(O)COc3cccc4c3C(=O)C(Cc3ccccc3)C4)CC2)c(C)c1 (configuration not stated),0.167 µM
18,O=C(CCc1ccccc1)c1ccccc1OCC(O)CN1CCN(C(=O)c2ccccc2)CC1 (configuration not stated),0.13 µM
19,COc1ccc(OCC(O)CN2CCN(c3ccccc3C)CC2)c(C(=O)CCc2ccccc2)c1 (configuration not stated),0.179 µM
20,O=C(CCc1ccccc1)c1ccccc1OCCCCN1CCOCC1,1.01 µM
21,O=C1CCc2c(OCC(O)CN3CCCCC3)cccc21 (configuration not stated),11.2 µM
22,CC(=O)c1cc(C)ccc1OCC(O)CN1CCCCC1 (configuration not stated),5.47 µM
23,Cc1ccccc1N1CCN(CC(O)COc2cc(Cl)c(Cl)cc2C(=O)CCc2ccccc2)CC1 (configuration not stated),0.017 µM

# Second part, the molecule after the results:
row,EC50,SMILES
1,302 µM,CC(=O)c1ccc(OCC(O)CN2CCOCC2)cc1 (configuration not stated)
2,10.1 µM,CC(=O)c1cccc(OCC(O)CN2CCN(c3ccc(F)cc3)CC2)c1 (configuration not stated)
3,0.145 µM,O=C(CCc1ccccc1)c1ccccc1OCC(O)CNC(c1ccccc1)C1CCCCC1 (configuration not stated)
4,1.69 µM,CCCN(CC(O)COc1ccccc1C(=O)CCc1ccccc1)C(=O)c1ccccc1 (configuration not stated)
5,0.336 µM,CC(=O)OC(COc1ccccc1C(=O)CCc1ccccc1)CN1CCCCC1 (configuration not stated)
6,1590 µM,O=C(O)COc1ccccc1C(=O)CCc1ccccc1
7,9.07 µM,CC(=O)c1cccc(OCC(O)CN2CCCCC2)c1 (configuration not stated)
8,0.21 µM,CC(C)C(NCC(O)COc1ccccc1C(=O)CCc1ccccc1)c1ccccc1 (configuration not stated)
9,0.379 µM,CC(=O)c1cccc(OCC(=O)CN2CCN(c3cccc(C)c3C)CC2)c1
10,0.026 µM,Cc1ccc(OCC(O)CN2CCN(c3ccccc3C)CC2)c(C(=O)CCc2ccccc2)c1 (configuration not stated)
11,0.73 µM,O=C(CCc1cccc2ccccc12)c1ccccc1OCC(O)CN1CCOCC1 (configuration not stated)
12,0.059 µM,Cc1ccccc1N1CCN(CC(O)COc2ccc(Cl)cc2C(=O)CCc2ccccc2)CC1 (configuration not stated)
13,0.299 µM,CCC(=O)c1ccccc1OCC(O)CN1CCC(O)(c2ccccc2)CC1 (configuration not stated)
14,3.02 µM,CCCNCC(O)COc1ccc(O)cc1C(=O)CCc1ccccc1 (configuration not stated) [5-HYDROXY PROPAFENONE]
